Source: patent publication US9464093B2, “Substituted imidazo[4',5':4,5]cyclopenta[1,2-e]pyrrolo[1,2-a]pyrazines and oxazolo[4',5':4,5]cyclopenta[1,2-e]pyrrolo[1,2-a]pyrazines for treating brain cancer” (Mayo Foundation for Medical Education and Research, priority 2012, dated 2016)
“Also recorded” adds a separate entry of the source.

Tests used:
[1] = test system: MB-468 triple-negative breast cancer cells; test: MB-468 orthotopic murine model for metastatic breast cancer of the brain; assay type: in vivo, athymic mice; details: for Median Survival (Day) Breast Cancer (MB-468): control 52; for survival (Kaplan-Meier) vs control, MB-468 model / tumor growth (BLI) vs control, MB-468 model: all treatment groups (2.5 or 5 mg/kg i.p. daily for 4 days); for tolerability, MB-468 model: both dose levels (2.5 and 5 mg/kg)
Procedure: Female athymic mice (8-10 weeks old and weighing 20-25 g at the beginning of the study) were purchased from Harlan laboratories (Indianapolis, Ind.). They were housed in a temperature-controlled sterilized room (23±2° C.) with a 12-h light/dark cycle and free access to food and water throughout the study.
Murine brain tumor models were created by intracerebral injection of luciferase-transfected cancer cells in athymic mice under anesthesia using a stereotactic platform. For murine model for CNS lymphoma, 1×10^5 OCI-LY10 B lymphoma cells were used. For murine model for metastatic breast cancer of the brain (MBCB), 1×10^5 MB-468 triple-negative breast cancer cells were used. For murine model for glioblastoma multiforme (GBM), 1.75×10^5 U87 cells were used. Eight-week-old athymic mice underwent a minimum 7-day acclimation/quarantine prior to surgery. Surgery was performed in a laminar flow hood under sterile conditions. Tylenol 300 mg/kg PO was given for analgesia 48 hours before the surgery and continuing 48 hours postoperatively. Anesthesia was achieved by inhalation of 1-2% isoflurane. After the mouse became well anesthetized, it was placed in the Kopf stereotactic instrument. A small amount of BNP antibiotic cream (a mixture of Bacitracin, Neomycin and Polymyxin) was smeared on its eyes to prevent infection and corneal damage during surgery. A strip of soft fabric was placed over the mouse's body and tail to prevent excessive heat loss during surgery. The scalp area was cleaned with a 2% solution of Betadine and dried with cotton tipped applicator. A midline sagittal incision was made in the scalp. A small burr hole was drilled in the left skull with a surgical drill (Kopf) or a Dremel drill according to the coordinates (AP: 0.5 mm, LM: 2.5 mm) as determined by reference to the mouse brain atlas by Franklin and Paxinos. The dura mater was surgically exposed, and a 10 μl Hamilton syringe with a 26S-gauge beveled needle was lowered into the left cerebral hemisphere up to a depth of 3 mm and 5 μl of tumor cells were slowly infused (0.5 μl/min). The needle was left in place for 5 minutes to prevent reflux and then was slowly removed. The skin was closed with wound clips. The mice recovered from anesthesia and surgery in a warm environment and were not returned to their cages until motor activity returned. Cages were placed on top of a heating pad to minimize the loss of body heat during the recovery. The mice were monitored post-operatively at least twice a day for 5 days or until recovery was complete.
BLI was used to assess the impact of the treatments on the brain tumor growth. After intracerebral injection of cancer cells, all the mice were subjected to bioluminesence imaging (BLI) twice a week starting at day-4 post-intracerebral injection to monitor the real-time in vivo tumor growth. BLI was conducted using a Xenogen Lumina optical imaging system (Caliper Life Sciences, Hopkinton, Mass.). Mice were anesthetized with isofluorane before intraperitoneal injections of luciferin at a dose of 150 mg/kg, providing a saturating substrate concentration for luciferase enzyme. Peak luminescent signals were recorded 10 minutes after luciferin injection. Regions of interest encompassing the intracranial area of signal were defined using Living Image software (Xenogen, Alameda, Calif.), and the total photons/s/steradian/cm2 was recorded.
Five mice each were assigned to one of seven treatment groups or one vehicle control group for all three brain tumor models. Mice in experimental groups received either 2.5 mg/kg or 5 mg/kg of AA, CEAA, or DCEAA by intraperitoneal route daily for 4 days. For CAA, only 2.5 mg/Kg by intraperitoneal route daily for 4 days was used. The control group received DMSO by intraperitoneal route for 4 days. The end point for the survival analysis was the development of limb paralysis. Animals were checked at least twice per day. Animals that reached the end point were sacrificed by CO2 anesthesia. […]

[2] = CNS pharmacokinetic analysis in rats (microdialysis, CE-UV); details: male, Sprague-Dawley, rat, in vivo, iv, 2.5 mg/kg
Procedure: Male Sprague-Dawley rats (Harlan, Indianapolis, Ind., USA) were used in this CNS pharmacokinetic study on Agelastatin A and its three analogues (CAA, CEAA, and DCEAA). Six rats were used for each drug. The rats were approximately 2 months old and weighed 300±25 g at the beginning of the study. All rats were housed in a temperature-controlled room (23±2° C.) with a 12:12 light dark cycle (lights off at 6:00 pm). Purina 5001 Rodent Chow and tap water were available ad libitum at all times.
Rats were anesthetized with gasiform isoflurane (1% isoflurane in a mixture of 20% oxygen and 80% nitrogen gas) and immobilized in a stereotaxic frame (KOPF Instruments, Tujunga, Calif.). Anesthesia was maintained during the entire procedure. The guide cannula (CMA Microdialysis Inc., Acton, Mass.) was stereotactically implanted into the lateral ventricle (AP −0.9, L 1.6, V 3.4, relative to bregma and skull), and then secured to the skull by screws and dental cement. Following surgery, each rat was housed individually with food and water ad libitum for 3 days for recovery from cannulation surgery. Microdialysis experiments were carried out on conscious, freely moving rats. On the day of the experiment, the stylet in the guide cannula was replaced with the microdialysis probe (CMA/11 with 4 mm membrane, CMA Microdialysis Inc., Acton, Mass.) and a vascular microdialysis probe (CMA/20 with 4 mm membrane, CMA Microdialysis Inc, Acton, Mass.)) was implanted into a jugular vein. The probes had inlet tubes connected to syringes to deliver artificial cerebrospinal fluid (146 mM NaCl, 1.2 mM CaCl2, 3 mM KCl, 1 mM MgCl2, 1.9 mM Na2HPO4, 0.1 mM NaH2PO4, pH 7.4) into the ventricle and Dulbecco's phosphate-buffered saline (D-PBS) into the blood at 0.5 μl/min flow rate. […]
The drug concentration in the microdialysate was measured by CE-UV (Agilent 3D CE). […] The absorbance from the drug was detected with UV at 280 nm. […]
Two-way repeated measures ANOVA followed by Tukey's test was used. […] CNS penetration is determined as the ratio of CSF and blood area under the curve (AUC).

[3] = 2.5 mg/kg intraperitoneal daily for 4 days
[4] = 5 mg/kg intraperitoneal daily for 4 days

Structure (SMILES)	Median Survival (Day) Breast Cancer (MB-468) [1, 3] [days]	weight loss, MB-468 model ([1]; 5 mg/kg dose level)	Median Survival (Day) Breast Cancer (MB-468) [1, 4] [days]	survival (Kaplan-Meier) vs control, MB-468 model [1]	tumor growth (BLI) vs control, MB-468 model [1]	Kp [2]	weight loss, MB-468 model ([1]; 2.5 mg/kg)	tolerability, MB-468 model [1]
CN1C(=O)N[C@H]2[C@@H]3NC(=O)c4ccc(Br)n4[C@@H]3C[C@]21O [AA, agelastatin A, reference compound]	57	Some weight loss	60.5	significantly prolonged survival; also recorded: prolongation of survival	significantly decreased tumor growth; also recorded: significantly slower			
CN1C(=O)N[C@H]2[C@@H]3NC(=O)c4ccc(Cl)n4[C@@H]3C[C@]21O [CAA, chloroagelastatin A]	75			significantly prolonged survival	significantly decreased tumor growth	0.16	Some weight loss	
CCN1C(=O)N[C@H]2[C@@H]3NC(=O)c4ccc(Cl)n4[C@@H]3C[C@]21O [CEAA, chloroethylagelastatin A]	56		64	significantly prolonged survival; also recorded: prolongation of survival	significantly decreased tumor growth; also recorded: significantly slower	0.27		well tolerated
CCN1C(=O)N[C@H]2[C@@H]3NC(=O)c4cc(Cl)c(Cl)n4[C@@H]3C[C@]21O [DCEAA, dichloroethylagelastatin A]	61		75	significantly prolonged survival; also recorded: prolongation of survival	significantly decreased tumor growth; also recorded: significantly slower	0.307		well tolerated
